Measurements from patent US10018911B2, “Chemically amplified resist material and resist pattern-forming method” (JSR CORPORATION, priority 2015, dated 2018).

Assay: Absorbance measurement of component (b) and derived sensitizing agent, 0.0001% by mass cyclohexane solution
Type: physicochemical
Procedure: The component (b) and the sensitizing agent derived from the component (b) are shown together in Table 2. With respect to each of the components (b) and the sensitizing agents derived from the components (b), a 0.0001% by mass cyclohexane solution thereof was prepared. The absorbance of the solution prepared thus was measured using cyclohexane as a reference solvent and a spectrophotometer (“V-670” available from JASCO Corporation).
The absorbance was evaluated to be: “transparent” in a case where the measurement value of the absorbance was less than 0.01 over the entire wavelength range of no less than 300 nm and no greater than 450 nm; and “absorbing” in a case where the measurement value of the absorbance was no less than 0.01 at at least one wavelength within the entire wavelength range of no less than 300 nm and no greater than 450 nm.

| Compound | Absorbance (300-450 nm) of (b) component |
| --- | --- |
| COc1ccc(C(O)c2ccc(OC)cc2)cc1 [Example B-1, bis(4-methoxyphenyl)methanol] | transparent (the measurement value of the absorbance was less than 0.01 over the entire wavelength range of no less than 300 nm and no greater than 450 nm) |
| COc1ccc(C(OC)(OC)c2ccc(OC)cc2)cc1 [Example B-2] | transparent (the measurement value of the absorbance was less than 0.01 over the entire wavelength range of no less than 300 nm and no greater than 450 nm) |
